Assay: gradient 5% acetonitrile 3 min, to 50% in 2 min, to 85% in 15 min, held 3 min, 100 µL/min
Settings: column: Zorbax Extend-C18 2.1 x 50 mm; eluents: water / acetonitrile, 0.1% formic acid
Procedure, shortened: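 The system's dead and dwell volumes were 40 μL and 900 μL, with a Zorbax Extend-C18 column (2.1 × 50 mm, 1.8 μm) run at 100 μL/min in water and acetonitrile containing 0.1% formic acid each. Pure standards were analyzed in mixtures of ~100 molecules by HPLC–quadrupole time-of-flight mass spectrometry in positive and negative ionization mode. Retention time was assigned from computationally picked, manually inspected adduct peaks.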

Row | RP-LC retention time [s] | SMILES
1 | 613 | O=C(O)c1cnc(NCc2ccccn2)nc1-c1cccc(Cl)c1
2 | 651 | CCN(CC)CCNc1ncnc2onc(-c3cc(F)cc(F)c3)c12
3 | 779 | CC(Oc1cccc(Cl)c1)C(=O)NCC1CCOCC1 (stereo not given)
4 | 1130 | CCCOc1nc2ccccc2nc1N1CCCC(C(=O)Nc2ccc(OC)c(OC)c2)C1 (stereo not given)
5 | 769 | CC(C)(C)n1nnnc1C1CC2(CCOCC2)C(=O)N1Cc1ccccc1 (stereo not given)
6 | 655 | N#CC1=C2CCCCC2(O)NC1=O (stereo not given)
7 | 696 | COc1ccc(CNC(=O)c2cc3c(s2)CCN(C(C)=O)C3)cc1
8 | 1070 | N#Cc1cnn(-c2cccc(Cl)c2)c1-n1cccc1
9 | 818 | Cc1ccc(CNC(=O)c2ccc(NC(=O)C3CCC3)cc2N2CCOCC2)o1
10 | 640 | O=C(Nc1cccc(-c2nnc3n2CCCC3)c1)c1ccoc1
11 | 745 | NS(=O)(=O)c1ccc(NC(=O)C2(c3cc(-c4ccco4)on3)CC2)cc1
12 | 1240 | COC(=O)c1ccc2c(=O)n(-c3ccccc3)c(N3CCCCCC3)nc2c1
13 | 588 | O=C(Cn1nc(-c2ccco2)ccc1=O)NCCOc1cc(N2CCCCC2)ncn1
14 | 709 | O=C(NC1CCCCCC1)c1nc(-c2ccnc(N3CCCC3)c2)no1
15 | 833 | CC(C)n1cc(S(=O)(=O)NCc2cccs2)c2cccnc21
16 | 754 | COc1ccc(CNC2=NCCNC23CCN(S(=O)(=O)c2cc(C)ccc2C)CC3)cc1
17 | 966 | CC(C)c1ccc(N2C(=O)CN(S(C)(=O)=O)CC2(C)C(=O)NCc2ccc(Cl)cc2)cc1 (stereo not given)
18 | 659 | CCS(=O)(=O)NCC1CCN(C(=O)COc2ccccc2)CC1
19 | 696 | Cc1cc(C)c(S(=O)(=O)NCCn2c(C)cnc2C2CCC2)cc1C
20 | 714 | CC(=O)Nc1ccc(NC(=O)c2nn(-c3ccccc3)c3ccccc3c2=O)cc1
21 | 612 | CC1CCCN(CCCNC(=O)Cn2c3ccccc3c3cnn(C)c(=O)c32)C1 (stereo not given)
22 | 1040 | CO/N=C1/C=C(C)C(=O)C(C)=C1C

Row | RP-LC retention time [s] | SMILES
23 | 1030 | CC1CCN(S(=O)(=O)c2ccc(-c3nnc(C4CCC4)o3)o2)CC1
24 | 774 | Cc1cc(=O)n(CC(=O)Nc2ccc(C(C)C)cc2)c(N2CCOCC2)n1
25 | 586 | Cc1cc(C(=O)N2CCC(N3CCCCC3)CC2)c2cc(Br)ccc2n1
26 | 697 | COCc1nncn1C1CCN(S(=O)(=O)c2ccccc2Cl)CC1
27 | 891 | O=C(CSc1nnc2c3cc(-c4ccc(F)cc4)nn3ccn12)Nc1ccc(F)cc1F
28 | 722 | C=CCn1c(=O)c(=O)n(Cc2ccc(C(=O)N3CCN(c4ncccn4)CC3)cc2)c2ccccc21
29 | 659 | O=C(Nc1ccc2nncn2c1)Nc1ccccc1F
30 | 951 | COc1ccc(S(=O)(=O)CCC(=O)N2CCCC2c2nc(-c3ccc(C)cc3)no2)cc1 (stereo not given)
31 | 792 | CCn1nc(N2CCCC(NC(=O)C3(c4ccccc4)CCCC3)C2)ccc1=O (stereo not given)
32 | 828 | Cc1cc(N2CCN(c3ccccn3)CC2)n2nc(-c3cccc(Cl)c3)c(C)c2n1
33 | 728 | CC1Cc2nc(SCC(=O)NCC3CCCO3)n(-c3ccc(F)cc3)c(=O)c2S1 (stereo not given)
34 | 815 | COCCN(Cc1ccc(F)cc1)Cc1cc(=O)c2cc(F)ccc2[nH]1
35 | 799 | Cc1ccccc1CNC(=O)Cn1nc(C(=O)N2CCCC2)c2ccccc21
36 | 592 | CCOC(=O)c1sc(NC(=O)C(C)(C)C)nc1-c1ccccc1
37 | 661 | CCOc1ccc(NC(=O)N(Cc2ccc3c(c2)OCO3)C2CCN(CC)CC2)cc1
38 | 667 | CCCCNC(=O)C1CCN(Cc2cn(C)c3ccc(Cl)cc23)CC1
39 | 772 | CCCNC(=O)c1cnn(-c2cc(-c3nc(C)no3)ccn2)c1C
40 | 1300 | Cc1ccc(-c2csc(NC(=O)CCCOc3ccccc3C)n2)cc1
41 | 1040 | CC(C)Cn1cc(CCNS(=O)(=O)c2cc(Cl)ccc2Cl)c2cccnc21
42 | 894 | CCOC(=O)C1CCN(C(=O)C2(c3ccc(NS(C)(=O)=O)cc3)CCCCC2)CC1
43 | 786 | CC(=O)NCCCOc1ccc([N+](=O)[O-])cc1Cl
44 | 754 | CCOc1cc(-c2ccccc2)nc2ccc(NC(=O)c3cccs3)cc12

Row | RP-LC retention time [s] | SMILES
45 | 660 | O=C(NCc1ccccc1)NC1CCN(C(=O)N2C[C@H]3C[C@H](C2)[C@H]2CCCC(=O)N2C3)CC1
46 | 663 | CN(C)C(=O)c1cccnc1OC1CCN(C(=O)c2ccc(Br)o2)C1 (stereo not given)
47 | 714 | CCc1nnc2ccc(S(=O)(=O)Nc3cccc(F)c3)cn12
48 | 1080 | Cc1ccccc1-c1noc(C2CCCN2C(=O)Nc2cc(F)ccc2F)n1 (stereo not given)
49 | 776 | Cc1ccccc1C(=O)N1C[C@@H]2C[C@H]1C[C@@H]2NS(=O)(=O)c1cccs1
50 | 927 | CCc1nc2ccccc2c(=O)n1Cc1noc(C2CC(=O)N(c3ccc(C)c(C)c3)C2)n1 (stereo not given)
51 | 992 | O=C1[C@H]2CN(Cc3ccc(F)cc3Cl)C[C@H]2C(=O)N1Cc1ccc2c(c1)OCO2
52 | 1060 | Cc1ccc(N2CCN(c3nccn4c(=O)n(CC(=O)Nc5ccc(C)c(Cl)c5)nc34)CC2)cc1
53 | 657 | Cc1cc(=O)n(CC(=O)N(C)c2ccccc2)c(N2CCOCC2)n1
54 | 784 | CCn1nnc2c(N3CCc4cc(OC)c(OC)cc4C3C)ncnc21 (stereo not given)
55 | 842 | CC(C)c1ccc(-n2nc(N3CCN(C(=O)c4ccco4)CC3)ccc2=O)cc1
56 | 568 | CCN(CC)C(=O)N1CC(Cn2c(C)cnc2-c2ccncc2)C1
57 | 597 | COc1cc(C(C)=O)ccc1OCC(O)CN1CCN(c2cccc(C)c2C)CC1 (stereo not given)
58 | 883 | O=S(=O)(NCc1nc(-c2ccc(NS(=O)(=O)c3cccs3)cc2)no1)c1ccccc1
59 | 661 | CCOC(=O)c1ccc2c(=O)c(C(=O)OCC)c[nH]c2c1
60 | 890 | Cc1oc(-c2[nH]ncc2C(=O)N(C)C)cc1S(=O)(=O)Nc1cc(F)cc(F)c1
61 | 853 | O=C(NC1CC1)c1csc(N2CCCCC2)n1
62 | 915 | O=C(Cc1ccsc1)NCCC1CCN(C(=O)Nc2cc(F)ccc2F)CC1
63 | 1040 | Fc1ccc(-n2cc(-c3noc(-c4ccccc4F)n3)nn2)cc1
64 | 946 | CCC(c1cccs1)N1C(=O)[C@H]2CN(S(=O)(=O)c3ccccc3)C[C@H]2C1=O (stereo not given in full)
65 | 719 | CC(C)CC(=O)N1CCC(c2noc(-c3ccncc3)n2)C1 (stereo not given)
66 | 1080 | CCOc1ccccc1NC(=O)C1CCCN(S(=O)(=O)c2ccc(OC)c(C)c2)C1 (stereo not given)

Row | RP-LC retention time [s] | SMILES
67 | 626 | CC(NC(=O)CCCc1ccccc1)C(=O)N1CCN(c2ccccn2)CC1 (stereo not given)
68 | 740 | O=C(Nc1ccc(F)cc1)C1CC(=O)N(c2n[nH]c3cccc(F)c23)C1 (stereo not given)
69 | 559 | Cc1ccc(C(=O)NCCc2cn3ccsc3n2)cc1[N+](=O)[O-]
70 | 620 | CCn1c(=O)c(C(=O)NCCN2CCc3ccccc3C2)nc2cccnc21
71 | 1020 | COc1cccc(-n2c(N3CCCC(C(=O)Nc4ccc(Cl)cc4)C3)nc3ccsc3c2=O)c1 (stereo not given)
72 | 603 | CCC(=O)NCc1nc2c(n1CC)CN(C(=O)c1cccc(C(F)(F)F)c1)CC2
73 | 936 | Cc1ccc(S(=O)(=O)N2CCC(OCc3noc(C4CCCO4)n3)CC2)cc1F (stereo not given)
74 | 1130 | CCn1c(=O)n(CC(=O)N(C)C2CCCCC2)c(=O)c2cnc(-c3ccccc3)nc21
75 | 687 | O=C(NCc1ccccn1)C1CCCN(c2nccnc2Sc2ccccc2)C1 (stereo not given)
76 | 649 | O=C(c1cc(-c2ccc(Br)cc2)n[nH]1)N1CCN(c2ccc(N3CCOCC3)nn2)CC1
77 | 689 | O=C(Cc1ccsc1)N1CCC(c2nncn2-c2ccccc2)CC1
78 | 688 | Cc1nccn1CCC(C(N)=O)(c1ccccc1)c1ccccc1
79 | 1180 | O=S(=O)(NCc1ccc(F)cc1)c1ccccc1-c1nc(-c2ccc(F)cc2)no1
80 | 840 | COc1ccc(-c2ccnc3nc(C(C)C)nn23)c(F)c1
81 | 718 | CC(C(=O)N1CCCN(c2nc3cccnc3o2)CC1)c1ccccc1 (stereo not given)
82 | 876 | CCN(CC)c1ccc(/C=C2\SC(=O)NC2=O)cc1
83 | 697 | COc1ccc(C(=O)N2CCN(c3c(C)n(C)c(=O)n(C)c3=O)CC2)cc1
84 | 856 | COc1ccc(N2C=C(C(=O)N3CCCC3)S(=O)(=O)c3ccc(Cl)cc32)cc1
85 | 691 | O=C(CCc1c(-c2ccc(F)cc2)nc2ccccn12)Nc1ccccc1C(F)(F)F
86 | 963 | CCOc1ccc(C(=O)NCc2noc(-c3cccc(Cl)c3)n2)cc1
87 | 996 | O=C(c1nnn2c1COC(c1ccc(Cl)cc1)C2)N1CCN(C(=O)C2(c3ccccc3)CC2)CC1 (stereo not given)
88 | 1020 | COc1ccccc1N1CCN(c2cc(SCC(=O)NC(C)CCc3ccccc3)ncn2)CC1 (stereo not given)

Row | SMILES | RP-LC retention time [s]
89 | CCCn1cc(C(=O)NC(C)c2cccnc2)c2cccnc21 (stereo not given) | 597
90 | COC(=O)c1ccc(NC(=O)N2[C@H]3CC[C@@H]2c2cnc(C)nc2C3)cc1 | 653

Reference: the METLIN SMRT retention time set (Domingo-Almenara et al. 2019)
